Assay results: patent US20260364072A1, “METHODS FOR PROMOTING EXPANSION OF HUMAN CD34+ CELLS IN VIVO AND FOR PROMOTING NEURAL REGENERATION” (THE REGENTS OF THE UNIVERSITY OF CALIFORNIA, priority 2023, published 2026)

Key:
[1] = system: ADAR1p150 splice isoform; leukemia stem cells; settings: cited from earlier work
[2] = system: sAML PDX mouse models; test: Survival of humanized sAML PDX mice; assay type: in vivo, human sAML cells in mice
Procedure: Here, we established humanized mouse models using CD34^+ stem cells isolated from the peripheral blood of adult secondary AML (sAML) patients or bone marrow of normal-aged donors (63-79 years old).
The mouse models were screened by staining the PB of each mouse with a human CD45 mAb. Mice with a threshold of human CD45^+ cells >1% were included in the treatment cohort for Rebecchini. The dosing plan involved administering Rebecsinib at a dose of 10 mg/kg, intravenously, twice a week for 2 weeks, with a total of 5 doses. Single cells were isolated from the mouse organs, including PB, SP, and BM, and subjected to staining with human stem cell markers and lineage cell markers.
These mice were monitored for survival throughout the study until they reached the endpoint. Survival data were analyzed using a Log-rank test.

[3] = system: ADAR1, CD44v3, MCL1-L; test: LSC-associated transcripts and ADAR1 activity after treatment or ADAR1 shRNA knockdown; assay type: cell-based, human; settings: phenocopied ADAR1 shRNA knockdown
From the text: For lentivirus-mediated knockdown of human ADAR1 in ADAR1 activation and RNA editing biomarker studies of the nanoluc-GFP reporter and endogenous transcripts, human leukemia cells were stably transduced with the lentiviral shRNA vectors targeting ADAR1 (shADAR1) or scrambled control (shCtrl) to ablate endogenous ADAR1 expression. The shRNA plasmids targeting ADAR1 (shADAR1) as well as the scrambled control (shCtrl) were purchased from VectorBuilder (Chicago, IL) (shCtrl: […] (SEQ ID NO:3) and shADAR1: […]) (SEQ ID NO:4). […] Viral titers were assessed by qRT-PCR and transduction efficiency was tested in 293T cells. […]
For quantitative analysis of splice isoform expression, RNA editing rates, and whole gene expression by qRT-PCR, cells or tissue fragments were harvested in RNA lysis buffer and total RNA was extracted using RNeasy mini or micro extraction kits (QIAGEN, Germantown, MD) following the manufacturer's protocol including a DNase incubation step to digest any trace genomic DNA present. Levels of ADAR1 variants and LSC-specific transcripts were quantified by qRT-PCR as previously described.^14 RNA-editing site-specific qRT-PCR (RESSqPCR) was performed for variants in AZIN1 transcripts.^53 Additional species-specific primers were also designed to quantify intron retention rates in cells treated with Rebecsinib as a biomarker of response to RNA splicing modulation. […]

[4] = system: MCL1 transcripts; test: MCL1-S/L ratio by splice isoform-specific qRT-PCR in primary CD34+ MF HPC and LSC; assay type: cell-based, human; settings: 0.1 μM, compared with vehicle, short-term culture, no stroma

In the case of `CC[C@H](OC)[C@@H](C)[C@H]1O[C@@H]1[C@@H](O)[C@H](C)/C=C/C=C(\C)[C@H]1OC(=O)C[C@H](O)CC[C@@](C)(O)[C@@H](OC(C)=O)/C=C/[C@@H]1C` [Rebecsinib], the “activation of the interferon-inducible ADAR1p150 splice isoform” value [1] is listed as “inhibit activation of the interferon-inducible ADAR1p150 splice isoform”, the “malignant splice isoform switching” value [1] is listed as “reverse malignant splice isoform switching” and the “leukemia stem cell (LSC) maintenance” value ([1]; in vitro and in preclinical patient-derived AML mouse models) is listed as “significantly reduce leukemia stem cell (LSC) maintenance”. The “survival of sAML-engrafted mice” value ([2]; compared to vehicle, fedratinib, and the combination of rebecsinib and fedratinib) was “survived significantly longer”, the “survival time versus single fedratinib” value ([2]; single rebecsinib vs single fedratinib, p=0.016, Log-rank test) was “significantly longer” and the “survival time versus vehicle” value ([2]; single rebecsinib vs vehicle, p=0.0003, Log-rank test) was “significantly longer”. The ADAR1 activity [3] was “repression of ADAR1 activity”, the “expression of LSC-associated transcripts, such as CD44v3 and MCL1-L” value [3] was “reduced expression of LSC-associated transcripts” and the MCL1-S/L transcript ratio [4] was “elevated expression of pro-apoptotic MCL1-short (S) compared with anti-apoptotic MCL1-long (L) transcripts”.
